What was measured:
X. autotrophicus = conditions: read-out: half maximum inhibitory concentration (IC50)
nitrogenase = conditions: competitive inhibition of nitrogenase; cited from earlier work
[1] = test system: glutamine synthetase (GS); experiment: NH3 secretion in the hybrid device after addition of GS inhibitor; assay type: cell-based, X. autotrophicus; conditions: 50 μM inhibitor
Experimental: Eappl is defined as the voltage difference between the working (OER) and counter/reference (HER) electrodes in a two-electrode configuration. After inoculation with X. autotrophicus (initial OD600=0.2), the reactor was purged with the gas mixture at a flow rate between 5 to 20 mL min^−1. These electrochemical cells were stirred at 350 rpm to facilitate mass transport and were immersed in a 30° C. water bath. The electrolyte was sampled every 12 or 24 hr to quantify OD600 and N accumulation. For time points in which […] (GS) inhibitor phosphinothricin (PPT) was added with final concentration of 50 μM, aliquots were sampled prior to inhibitor addition. The reported data are based on at least three biological replicates (n≥3).
Ntotal was determined from sampled aliquots after persulfate digestion and based on the absorption of oxidized phenol under acidic conditions (Hach Company 2672245). Nsoluble was determined similarly as Ntotal, except that the supernatants after 10,000 rpm centrifugation were digested in persulfate and subsequently analyzed. NH3 was also determined from the supernatants after centrifugation, but based on the salicylate method that is selective to ammonia (Hach Company TNT830). […] For each category of nitrogen content, the nitrogen concentrations were determined by comparing the solution absorbance with those in standard curves. When PPT was added to induce NH3 secretion, the measured nitrogen concentrations presented in FIG. 5B and Table 3 was subtracted from the nitrogen in PPT (2 nitrogen atoms per each PPT molecule for Ntotal, and 1 nitrogen atom per each PPT for NH3). The PPT nitrogen content was also subtracted when calculating ηelec, NRR in Table 1.

Structure (SMILES): [Co+2] [Co2+]
- IC50 (X. autotrophicus): ~50 µM

Structure (SMILES): [HH] [H2, hydrogen]
- inhibition constant Ki(D2) (nitrogenase): ~11 kPa

Structure (SMILES): CP(=O)(O)CC[C@H](N)C(=O)O [PPT, phosphinothricin]
- biomass of X. autotrophicus after inhibitor addition [1]: stagnated
- concentration of NNH3 at end of experiment ([1]; Eappl=3.0 V): ~0.8 mM
- accumulated Ntotal ([1]; Eappl=3.0 V, n=3): 47 ± 3 mg/L
- concentration of N in free NH3 in the solution (NNH3) at end of experiment ([1]; Eappl=3.0 V, n=3): 11 ± 2 mg/L
- biomass of X. autotrophicus after inhibitor addition ([1]; listed as phosphinothricin): slows

Source: patent US20200102254A1, “BIOFERTILIZER AND METHODS OF MAKING AND USING SAME” (President and Fellows of Harvard College, priority 2017, published 2020)
